Earlier results in patent US7163699B2, “Progestin co-micronized with a surfactant pharmaceutical composition comprising same methods for making same and uses thereof” (Laboratories Besins International, priority 2001, dated 2007).

Conditions: co-micronization with sodium lauryl sulfate or a sucrose ester of stearic acid

- solubility of phenitoin: not improved
SMILES: O=C1NC(=O)C(c2ccccc2)(c2ccccc2)N1 [phenitoin]
